Activity coefficient data for 16 molecules are collected here from the NIST ThermoML archive (doi:10.1021/je201310d).

This data set in a line: activity coefficient (dimensionless); of the first substance listed, at infinite dilution; xn = mol fraction of the nth substance listed. As to conditions: 101 kPa, Liquid, Chromatography, x1 = 0.

Numbers after ± are expanded uncertainties.

Take `Cc1ccccc1C` [1,2-dimethylbenzene] + CCCCOP(=O)([O-])OCCCC.CCCCn1cc[n+](C)c1: the activity coefficient (313.15 K) turned out to be 1.8 ± 0.11; the activity coefficient (323.15 K) came out at 1.77 ± 0.1; the activity coefficient (333.15 K) amounted to 1.73 ± 0.1; the activity coefficient (343.15 K) turned out to be 1.71 ± 0.1; the activity coefficient (353.15 K) is 1.68 ± 0.1; the activity coefficient (363.15 K) is 1.65 ± 0.1.

As for `Cc1cccc(C)c1` [1,3-dimethylbenzene] + CCCCOP(=O)([O-])OCCCC.CCCCn1cc[n+](C)c1, the activity coefficient by setting is: (313.15 K) 1.99 ± 0.12; (323.15 K) 1.95 ± 0.12; (333.15 K) 1.92 ± 0.11; (343.15 K) 1.88 ± 0.11; (353.15 K) 1.85 ± 0.11; (363.15 K) 1.83 ± 0.11.

Turning to `Cc1ccc(C)cc1` [1,4-dimethylbenzene] + CCCCOP(=O)([O-])OCCCC.CCCCn1cc[n+](C)c1, the activity coefficient (313.15 K) turned out to be 1.91 ± 0.11; the activity coefficient (323.15 K) came out at 1.86 ± 0.11; the activity coefficient (333.15 K) came to 1.82 ± 0.11; the activity coefficient (343.15 K) came out at 1.78 ± 0.1; the activity coefficient (353.15 K) was found to be 1.75 ± 0.1; the activity coefficient (363.15 K) was found to be 1.72 ± 0.1.

As to `CC(C)CC(C)(C)C` [2,2,4-trimethylpentane] + CCCCOP(=O)([O-])OCCCC.CCCCn1cc[n+](C)c1, the activity coefficient (313.15 K) is 6.2 ± 0.37; the activity coefficient (323.15 K) is 6.12 ± 0.36; the activity coefficient (333.15 K) came out at 6.06 ± 0.36; the activity coefficient (343.15 K) worked out at 6.01 ± 0.36; the activity coefficient (353.15 K) came out at 5.94 ± 0.35; the activity coefficient (363.15 K) worked out at 5.88 ± 0.35.

Take `c1ccccc1` [benzene] + CCCCOP(=O)([O-])OCCCC.CCCCn1cc[n+](C)c1: the activity coefficient came out at 1.03 ± 0.06 (313.15 K); 0.97 ± 0.05 (323.15 K); 0.93 ± 0.05 (333.15 K); 0.9 ± 0.05 (343.15 K); 0.88 ± 0.05 (353.15 K); 0.85 ± 0.05 (363.15 K).

For `C1CCCCC1` [cyclohexane] + CCCCOP(=O)([O-])OCCCC.CCCCn1cc[n+](C)c1, the activity coefficient was determined as 3.09 ± 0.18 (313.15 K); 2.99 ± 0.18 (323.15 K); 2.84 ± 0.17 (333.15 K); 2.76 ± 0.16 (343.15 K); 2.68 ± 0.16 (353.15 K); 2.59 ± 0.15 (363.15 K).

For the molecule `C1=CCCCC1` [cyclohexene] + CCCCOP(=O)([O-])OCCCC.CCCCn1cc[n+](C)c1, the activity coefficient is 2.2 ± 0.13 (313.15 K); 2.15 ± 0.13 (323.15 K); 2.11 ± 0.13 (333.15 K); 2.05 ± 0.12 (343.15 K); 2.02 ± 0.12 (353.15 K); 1.96 ± 0.12 (363.15 K).

Take `CCCCCCCCCC` [decane] + CCCCOP(=O)([O-])OCCCC.CCCCn1cc[n+](C)c1: the activity coefficient amounted to 10 ± 0.6 (313.15 K); 9.65 ± 0.58 (323.15 K); 9.16 ± 0.55 (333.15 K); 8.78 ± 0.52 (343.15 K); 8.54 ± 0.51 (353.15 K); 8.25 ± 0.49 (363.15 K).

Regarding `CCCCCCC` [heptane] + CCCCOP(=O)([O-])OCCCC.CCCCn1cc[n+](C)c1, the activity coefficient reads like this: (313.15 K) 5.5 ± 0.33; (323.15 K) 5.38 ± 0.32; (333.15 K) 5.29 ± 0.31; (343.15 K) 5.21 ± 0.31; (353.15 K) 5.12 ± 0.3; (363.15 K) 5.05 ± 0.3.

Turning to `CCCCCC` [hexane] + CCCCOP(=O)([O-])OCCCC.CCCCn1cc[n+](C)c1, the activity coefficient is, setting by setting: (313.15 K) 4.73 ± 0.28; (323.15 K) 4.63 ± 0.28; (333.15 K) 4.51 ± 0.27; (343.15 K) 4.45 ± 0.26; (353.15 K) 4.32 ± 0.26; (363.15 K) 4.24 ± 0.25.

With `CC1CCCCC1` [methylcyclohexane] + CCCCOP(=O)([O-])OCCCC.CCCCn1cc[n+](C)c1, the activity coefficient (313.15 K) amounted to 3.7 ± 0.22; the activity coefficient (323.15 K) was found to be 3.61 ± 0.21; the activity coefficient (333.15 K) is 3.54 ± 0.21; the activity coefficient (343.15 K) stood at 3.48 ± 0.21; the activity coefficient (353.15 K) worked out at 3.41 ± 0.2; the activity coefficient (363.15 K) was 3.35 ± 0.2.

For the molecule `CCCCCCCCC` [nonane] + CCCCOP(=O)([O-])OCCCC.CCCCn1cc[n+](C)c1, the activity coefficient reads like this: (313.15 K) 7.69 ± 0.46; (323.15 K) 7.47 ± 0.45; (333.15 K) 7.31 ± 0.44; (343.15 K) 7.13 ± 0.42; (353.15 K) 7.02 ± 0.42; (363.15 K) 6.88 ± 0.41.

On to `CCCCCCCC` [octane] + CCCCOP(=O)([O-])OCCCC.CCCCn1cc[n+](C)c1, for which the activity coefficient turned out to be 6.54 ± 0.39 (313.15 K); 6.43 ± 0.38 (323.15 K); 6.36 ± 0.38 (333.15 K); 6.28 ± 0.37 (343.15 K); 6.21 ± 0.37 (353.15 K); 6.15 ± 0.37 (363.15 K).

For the molecule `CCCCC` [pentane] + CCCCOP(=O)([O-])OCCCC.CCCCn1cc[n+](C)c1, the activity coefficient (313.15 K) came out at 4.12 ± 0.25; the activity coefficient (323.15 K) was 4.05 ± 0.24; the activity coefficient (333.15 K) was found to be 3.93 ± 0.23; the activity coefficient (343.15 K) worked out at 3.86 ± 0.23; the activity coefficient (353.15 K) came out at 3.79 ± 0.23; the activity coefficient (363.15 K) was 3.72 ± 0.22.

Turning to `C=Cc1ccccc1` [styrene] + CCCCOP(=O)([O-])OCCCC.CCCCn1cc[n+](C)c1, the activity coefficient is, setting by setting: (313.15 K) 1.19 ± 0.07; (323.15 K) 1.15 ± 0.06; (333.15 K) 1.09 ± 0.06; (343.15 K) 1.07 ± 0.06; (353.15 K) 1.03 ± 0.06; (363.15 K) 0.98 ± 0.05.

Turning to `Cc1ccccc1` [toluene] + CCCCOP(=O)([O-])OCCCC.CCCCn1cc[n+](C)c1, the activity coefficient (313.15 K) worked out at 1.39 ± 0.08; the activity coefficient (323.15 K) is 1.35 ± 0.08; the activity coefficient (333.15 K) amounted to 1.32 ± 0.07; the activity coefficient (343.15 K) worked out at 1.3 ± 0.07; the activity coefficient (353.15 K) amounted to 1.29 ± 0.07; the activity coefficient (363.15 K) stood at 1.27 ± 0.07.
